Experiments:
dopamine [1] = assay: Apomorphine antagonism in rats (inhibition of apomorphine-induced agitation and stereotypy); assay type: in vivo; settings: Rattus norvegicus, read-out: ED50 for inhibition of apomorphine-induced symptoms
Text: Apomorphine Antagonism in Rats
The test procedure is described in Arch. Int. Pharmacodyn. […] In Table 1 are listed the ED50 values (mg/kg) for inhibition of apomorphine-induced symptoms obtained with compound (1) and the subsequent apomorphine challenge at different intervals (time).

dopamine [2] = assay: Amphetamine antagonism in rats (agitation and oxygen hyperconsumption); assay type: in vivo; settings: Rattus norvegicus, 0.75 h, compound sc, after 45 min amphetamine 2.5 mg/kg sc
Description: Amphetamine Antagonism in Rats
This test procedure is described in Industrial Pharmacology, Part II, Antidepressants, eds, S. Fielding and H. Lal, p. 125-141, Futura Publishing Company (1975). Solvent (controls) or the test compound (1) were injected sc, followed after 45 min by amphetamine (2.5 mg/kg, sc). Starting 15 min after the amphetamine injection, agitation and consumption of oxygen were evaluated every 15 min over a period of 1 hour. Agitation was scored 3 (pronounced), 2 (moderate), 1 (slight) and 0 (absent), the total score maximally being 4×3=12. Oxygen consumption was measured on a mercury manometer simultaneously. Significant inhibition required a total score for agitation of less than 11 (0.3% in controls) or a final scale reading for oxygen consumption of less than 105 Hg units (1.8% in controls; mean=118 units). Blockade of amphetamine-induced agitation was considered complete at a total score of less than 4 and that of oxygen consumption at a scale reading of less than 90 Hg units (i.e. the agitation score and oxygen consumption level of normal rats which is never observed in amphetamine-treated controls). Listed are the ED50 values (mg/kg) obtained with compound (1) and the subsequent amphetamine challenge.

dopamine [3] = assay: Apomorphine antagonism in dogs (absence of apomorphine-induced emesis); assay type: in vivo, dog; settings: Canis lupus familiaris
Description: Apomorphine Antagonism in Dogs
This test is described in Psychopharmacol. 78, 210-213 (1982) and provides--besides a measure of the potency--a good measure of the duration of action of the tested compounds as dopamine antagonists. Apomorphine (0.31 mg/kg, sc; 4 times the ED95) induced emesis in all control dogs. At different time intervals before the apomorphine challenge, the dogs were pretreated with different doses (iv, sc or po) of the test compound (1). Complete absence of emesis for 1 hour after the challenge was adopted as the criterion for apomorphine antagonism in dogs. Listed are the ED50 values (mg/kg) obtained with compound (1) at different intervals after iv, sc or po administration.

In the case of `Cc1nc2c(C)cccn2c(=O)c1CCN1CCC(c2noc3cc(F)ccc23)CC1` [Compound 1, 3-[2-[4-(6-fluoro-1,2-benzisoxazol-3-yl)-1-piperidinyl]ethyl]-2,9-dimethyl-4H-pyrido[1,2-a]-pyrimidin-4-one], the ED50 (dopamine [1]; Time 0.5 between compound and apomorphine challenge (1.25 mg/kg iv)) is reported as 21 µg/kg, the ED50 (dopamine [1]; Time 1 between compound and apomorphine challenge (1.25 mg/kg iv)) is reported as 18 µg/kg and the ED50 (dopamine [1]; Time 2 between compound and apomorphine challenge (1.25 mg/kg iv)) is reported as 32 µg/kg. For the same compound, the ED50 (dopamine [1]; Time 4 between compound and apomorphine challenge (1.25 mg/kg iv)) was 68 µg/kg, the ED50 (dopamine [1]; Time 8 between compound and apomorphine challenge (1.25 mg/kg iv)) was 290 µg/kg and the ED50 (dopamine [2]; blockade: agitation score <4, read-out: ED50, blockade of amphetamine-induced agitation) was 64 µg/kg. For the same compound, the ED50 (dopamine [2]; blockade: scale reading <90 Hg units, read-out: ED50, blockade of oxygen hyperconsumption) was 190 µg/kg, the ED50 (dopamine [2]; inhibition: agitation score <11, read-out: ED50, inhibition of amphetamine-induced agitation) was 14 µg/kg and the ED50 (dopamine [2]; inhibition: scale reading <105 Hg units, read-out: ED50, inhibition of oxygen hyperconsumption) was 57 µg/kg. The ED50 (dopamine [3]; iv, 0.5 h before apomorphine 0.31 mg/kg sc, read-out: ED50 (iv)) was 1.2 µg/kg, the ED50 (dopamine [3]; iv, 1 h before apomorphine 0.31 mg/kg sc, read-out: ED50 (iv)) was 1.1 µg/kg and the ED50 (dopamine [3]; iv, 2 h before apomorphine 0.31 mg/kg sc, read-out: ED50 (iv)) was 1.2 µg/kg. It also gave an ED50 (dopamine [3]; iv, 4 h before apomorphine 0.31 mg/kg sc, read-out: ED50 (iv)) of 0.79 µg/kg, an ED50 (dopamine [3]; iv, 8 h before apomorphine 0.31 mg/kg sc, read-out: ED50 (iv)) of 0.89 µg/kg and an ED50 (dopamine [3]; iv, 16 h before apomorphine 0.31 mg/kg sc, read-out: ED50 (iv)) of 1.2 µg/kg. It also gave an ED50 (dopamine [3]; iv, 32 h before apomorphine 0.31 mg/kg sc, read-out: ED50 (iv)) of 2.9 µg/kg, an ED50 (dopamine [3]; po, 0.5 h before apomorphine 0.31 mg/kg sc, read-out: ED50 (po)) of 5 µg/kg and an ED50 (dopamine [3]; po, 1 h before apomorphine 0.31 mg/kg sc, read-out: ED50 (po)) of 1.5 µg/kg. For the same compound, the ED50 (dopamine [3]; po, 2 h before apomorphine 0.31 mg/kg sc, read-out: ED50 (po)) was 0.89 µg/kg, the ED50 (dopamine [3]; po, 4 h before apomorphine 0.31 mg/kg sc, read-out: ED50 (po)) was 1.2 µg/kg and the ED50 (dopamine [3]; po, 8 h before apomorphine 0.31 mg/kg sc, read-out: ED50 (po)) was 0.99 µg/kg. The ED50 (dopamine [3]; po, 16 h before apomorphine 0.31 mg/kg sc, read-out: ED50 (po)) was 2.4 µg/kg, the ED50 (dopamine [3]; po, 32 h before apomorphine 0.31 mg/kg sc, read-out: ED50 (po)) was 6.3 µg/kg and the ED50 (dopamine [3]; sc, 0.5 h before apomorphine 0.31 mg/kg sc, read-out: ED50 (sc)) was 4.5 µg/kg. For the same compound, the ED50 (dopamine [3]; sc, 1 h before apomorphine 0.31 mg/kg sc, read-out: ED50 (sc)) was 2.4 µg/kg, the ED50 (dopamine [3]; sc, 2 h before apomorphine 0.31 mg/kg sc, read-out: ED50 (sc)) was 1.4 µg/kg and the ED50 (dopamine [3]; sc, 4 h before apomorphine 0.31 mg/kg sc, read-out: ED50 (sc)) was 0.89 µg/kg. For the same compound, the ED50 (dopamine [3]; sc, 8 h before apomorphine 0.31 mg/kg sc, read-out: ED50 (sc)) was 1.2 µg/kg, the ED50 (dopamine [3]; sc, 16 h before apomorphine 0.31 mg/kg sc, read-out: ED50 (sc)) was 2.2 µg/kg and the ED50 (dopamine [3]; sc, 32 h before apomorphine 0.31 mg/kg sc, read-out: ED50 (sc)) was 4.5 µg/kg.

From US5482943A, “(6-fluoro-1,2-benzisoxazol-3-yl)-1-piperidinyl-alkyl-(2, 9-disubstituted-4H-pyrido[1,2-a]pyrimidin-4-one) derivatives” (Janssen Pharmaceutica N.V., priority 1990, dated 1996)
